Test results reported in ChEMBL document CHEMBL2073999, “Vectorial transport by double-transfected cells expressing the human uptake transporter SLC21A8 and the apical export pump ABCC2” (Mol Pharmacol, 2001).

Test system: MDCK-II
Experiment: TP_TRANSPORTER: transepithelial transport in OATP1B3/MRP2 double transfectant (MDCKII)
Type: functional, cell-based

| SMILES | Activity |
| --- | --- |
| C[C@]12CC[C@@H]3c4ccc(O)cc4CC[C@H]3[C@@H]1CC[C@@H]2O[C@@H]1O[C@H](C(=O)O)[C@@H](O)[C@H](O)[C@H]1O | substrate [] |
| O=C1OC(c2ccc(O)c(S(=O)(=O)O)c2)(c2ccc(O)c(S(=O)(=O)O)c2)c2c(Br)c(Br)c(Br)c(Br)c21 | substrate [] |
| CO[C@H]1/C=C/O[C@@]2(C)Oc3c(C)c(O)c4c(O)c(c(/C=N/N5CCN(C)CC5)c(O)c4c3C2=O)NC(=O)/C(C)=C\C=C\[C@H](C)[C@H](O)[C@@H](C)[C@@H](O)[C@@H](C)[C@H](OC(C)=O)[C@@H]1C | substrate [] |
| C[C@]12CC[C@H](OS(=O)(=O)O)CC1=CC[C@@H]1[C@@H]2CC[C@]2(C)C(=O)CC[C@@H]12 | substrate [] |
| CCCCC/C=C\C\C=C/C=C/C=C/[C@@H](SC[C@@H](NC(=O)CC[C@H](N)C(=O)O)C(=O)NCC(=O)O)[C@@H](O)CCCC(=O)O | substrate [] |
| Cc1ccc(N(CC(=O)O)CC(=O)O)c(OCCOc2cc(-c3c4cc(Cl)c(=O)cc-4oc4cc(O)c(Cl)cc34)ccc2N(CC(=O)O)CC(=O)O)c1 | substrate [] |
